Results reported in ChEMBL document CHEMBL4825709 (J Med Chem, 2021).
≈ marks a conversion by molar mass, not a printed value.

Assay: Solubility of compound in pH 7.4 by charged aerosol detection method
Type: physicochemical
Conditions: buffer

Row | Compound | solubility [µg/mL]
1 | CNC(=O)C(C1CCOC1)N(CC(c1ccccc1)c1ccccc1)C(=O)c1cc(C)c(=O)n(C)c1 (stereo in doubt; 21) | > 143
2 | CNC(=O)C(C1CCOC1)N(CC(c1ccccc1)c1ccccc1)C(=O)c1cc(C)c(=O)n(C)c1 (stereo in doubt; 22) | > 185
3 | CNC(=O)C(C1CCOC1)N(CC(c1ccccc1)c1ccccc1)C(=O)c1cc(C)c(=O)n(C)c1 (stereo in doubt; 23) | > 181
4 | CNC(=O)C(C1CCOC1)N(CC(c1ccccc1)c1ccccc1)C(=O)c1cc(C)c(=O)n(C)c1 (stereo in doubt; 24) | > 153

Same assay, conditions: buffer, read-out: solubility

Row | Compound | solubility [µg/mL]
5 | CNC(=O)C(C)N(CC(c1ccccc1)c1ccccc1)C(=O)c1cn(C)c(=O)c(C)n1 (stereo not given) | > 102
6 | CNC(=O)C(C1CCOC1)N(CC(c1ccccc1)c1ccccc1)C(=O)c1cc(C)c(=O)n(C)c1 (racemic) | > 138
7 | CNC(=O)[C@H](C1CCOCC1)N(CC(c1ccccc1)c1ccccn1)C(=O)c1cc(C)c(=O)n(C)c1 (stereo in doubt) | > 231

Assay: physchem
Conditions: buffer, pH 7.4, logD

Row | Compound | logD
8 | CNC(=O)C(C(C)C)N(CC(c1ccccc1)c1ccccc1)C(=O)c1cc(C)c(=O)n(C)c1 (stereo not given) | 4.9
9 | CNC(=O)CN(CC(CC1CCOCC1)c1ccccc1)C(=O)c1cc(C)c(=O)n(C)c1 (stereo not given) | 2.4
10 | CNC(=O)CN(CC(c1ccccc1)n1ccnc1)C(=O)c1cc(C)c(=O)n(C)c1 (stereo not given) | 1.45
11 | CNC(=O)C(C)N(CC(c1ccccc1)c1cccnc1)C(=O)c1cc(C)c(=O)n(C)c1 (stereo not given) | 1.9
12 | Cc1cc(C(=O)N(CC(c2ccccc2)c2ccccc2)C(C)C2CCCO2)cn(C)c1=O (stereo not given) | 5.1
13 | CCNC(=O)C(C)N(CC(c1ccccc1)c1ccccc1)C(=O)c1cc(C)c(=O)n(C)c1 (stereo not given) | 4.3
14 | CCOC(CN(CC(=O)NC)C(=O)c1cc(C)c(=O)n(C)c1)c1ccccc1 (stereo not given) | 2.7
15 | CNC(=O)C(C)N(CC(c1ccccc1)c1ccncc1)C(=O)c1cc(C)c(=O)n(C)c1 (stereo not given) | 1.7
16 | CNC(=O)CN(CC(c1ccccc1)c1ccccc1)C(=O)c1cc(C)c(=O)n(C)c1 | 3.4
17 | CNC(=O)CN(CC(c1ccccc1)C(C)C)C(=O)c1cc(C)c(=O)n(C)c1 (stereo not given) | 3.3
18 | CCC(C(=O)NC)N(CC(c1ccccc1)c1ccccc1)C(=O)c1cc(C)c(=O)n(C)c1 (stereo not given) | 4.3
19 | CNC(=O)C1(N(CC(c2ccccc2)c2ccccc2)C(=O)c2cc(C)c(=O)n(C)c2)CCCC1 | 4.7
20 | CNC(=O)C(C)N(CC(O)(c1ccccc1)c1ccccc1)C(=O)c1cc(C)c(=O)n(C)c1 (stereo not given) | 2.9
21 | CNC(=O)C(C)N(CC(c1ccccc1)c1ccccc1)C(=O)c1cc(OC)c(=O)n(C)c1 (stereo not given) | 3.3
22 | CNC(=O)C(C)(C)N(CC(c1ccccc1)c1ccccc1)C(=O)c1cc(C)c(=O)n(C)c1 | 3.7
23 | Cc1cc(C(=O)N(CC(N)=O)CC(c2ccccc2)c2ccccc2)cn(C)c1=O | 2.9
24 | Cc1cc(C(=O)N(CCN2CCOCC2)CC(c2ccccc2)c2ccccc2)cn(C)c1=O | 4.1
25 | CNC(=O)C(N(CC(c1ccccc1)c1ccccc1)C(=O)c1cc(C)c(=O)n(C)c1)C(C)(C)C (stereo not given) | 5.4
26 | CNC(=O)C(C)N(CC(c1ccccc1)c1ccccc1)C(=O)c1cn(C)c(=O)c(C)n1 (stereo not given) | 4.1
27 | CNC(=O)C(C1CCOC1)N(CC(c1ccccc1)c1ccccc1)C(=O)c1cc(C)c(=O)n(C)c1 (racemic) | 4

Assay: AUC (0 to infinity) in Wistar Han rat at 1 mg/kg, iv measured up to 24 hrs by LC-MS/MS analysis
Type: ADME, organism-based
Parameters: route intravenous, dose 1 mg/kg, time <=24
Conditions: in vivo

Row | Compound | AUC(0-inf) [ng·h/mL]
28 | CNC(=O)[C@H](C1CCOCC1)N(CC(c1ccccc1)c1ccccn1)C(=O)c1cc(C)c(=O)n(C)c1 (stereo in doubt) | 340

Assay: Cmax in Wistar Han rat at 3 mg/kg, po measured up to 24 hrs by LC-MS/MS analysis
Type: ADME, organism-based
Parameters: route oral, dose 3 mg/kg, time <=24
Conditions: in vivo

Row | Compound | Cmax [nM]
29 | CNC(=O)[C@H](C1CCOCC1)N(CC(c1ccccc1)c1ccccn1)C(=O)c1cc(C)c(=O)n(C)c1 (stereo in doubt) | 398

Assay: Clearance in Wistar Han rat at 1 mg/kg, iv measured up to 24 hrs by LC-MS/MS analysis
Type: ADME, organism-based
Conditions: in vivo

Row | Compound | clearance [mL/min/kg]
30 | CNC(=O)[C@H](C1CCOCC1)N(CC(c1ccccc1)c1ccccn1)C(=O)c1cc(C)c(=O)n(C)c1 (stereo in doubt) | 50

Assay: Half life in Wistar Han rat at 1 mg/kg, iv measured up to 24 hrs by LC-MS/MS analysis
Type: ADME, organism-based
Conditions: in vivo

Row | Compound | half-life [min]
31 | CNC(=O)[C@H](C1CCOCC1)N(CC(c1ccccc1)c1ccccn1)C(=O)c1cc(C)c(=O)n(C)c1 (stereo in doubt) | 11.4

Assay: physchem
Conditions: FaSSIF, pH 6.5

Row | Compound | solubility at 16 h [µg/mL]
32 | CNC(=O)C(C(C)C)N(CC(c1ccccc1)c1ccccc1)C(=O)c1cc(C)c(=O)n(C)c1 (stereo not given) | 60 (≈ 131 µM)
33 | Cc1cc(C(=O)N(CC(c2ccccc2)c2ccccc2)C(C)C2CCCO2)cn(C)c1=O (stereo not given) | 21 (≈ 47.2 µM)
34 | CCC(C(=O)NC)N(CC(c1ccccc1)c1ccccc1)C(=O)c1cc(C)c(=O)n(C)c1 (stereo not given) | 150 (≈ 337 µM)
35 | CNC(=O)C1(N(CC(c2ccccc2)c2ccccc2)C(=O)c2cc(C)c(=O)n(C)c2)CCCC1 | 132 (≈ 280 µM)
36 | CNC(=O)C(C)N(CC(c1ccccc1)c1ccccc1)C(=O)c1cc(OC)c(=O)n(C)c1 (stereo not given) | 661 (≈ 1480 µM)
37 | CNC(=O)C(N(CC(c1ccccc1)c1ccccc1)C(=O)c1cc(C)c(=O)n(C)c1)C(C)(C)C (stereo not given) | 2 (≈ 4.22 µM)
38 | CNC(=O)[C@H](C1CCOCC1)N(CC(c1ccccc1)c1ccccn1)C(=O)c1cc(C)c(=O)n(C)c1 (stereo in doubt) | > 1000
39 | CNC(=O)C(C1CCOC1)N(CC(c1ccccc1)c1ccccc1)C(=O)c1cc(C)c(=O)n(C)c1 (stereo in doubt; 21) | 987 (≈ 2020 µM)

Assay: Intrinsic clearance in dog hepatocytes at 0.5 uM measured after 120 mins by LC-MS/MS analysis
Type: ADME, cell-based, Canis lupus familiaris, Hepatocyte
Conditions: 2 h

Row | Compound | CLH [mL/min/g]
40 | CNC(=O)[C@H](C1CCOCC1)N(CC(c1ccccc1)c1ccccn1)C(=O)c1cc(C)c(=O)n(C)c1 (stereo in doubt) | < 0.65

Assay: Intrinsic clearance in rat hepatocytes at 0.5 uM measured after 60 mins by LC-MS/MS analysis
Type: ADME, cell-based, Hepatocyte
Conditions: 1 h

Row | Compound | CLH [mL/min/g]
41 | CNC(=O)[C@H](C1CCOCC1)N(CC(c1ccccc1)c1ccccn1)C(=O)c1cc(C)c(=O)n(C)c1 (stereo in doubt) | 3.13

Assay: Intrinsic clearance in human hepatocytes at 0.5 uM measured after 120 mins by LC-MS/MS analysis
Type: ADME, cell-based, Hepatocyte
Conditions: 2 h

Row | Compound | CLH [mL/min/g]
42 | CNC(=O)[C@H](C1CCOCC1)N(CC(c1ccccc1)c1ccccn1)C(=O)c1cc(C)c(=O)n(C)c1 (stereo in doubt) | < 0.45

Assay: AUC (0 to infinity) in Wistar Han rat at 3 mg/kg, po measured up to 24 hrs by LC-MS/MS analysis
Type: ADME, organism-based
Parameters: route oral, dose 3 mg/kg, time <=24
Conditions: in vivo

Row | Compound | AUC(0-inf) [ng·h/mL]
43 | CNC(=O)[C@H](C1CCOCC1)N(CC(c1ccccc1)c1ccccn1)C(=O)c1cc(C)c(=O)n(C)c1 (stereo in doubt) | 162

Assay: Volume of distribution at steady state in Wistar Han rat at 1 mg/kg, iv measured up to 24 hrs by LC-MS/MS analysis
Type: ADME, organism-based
Conditions: in vivo, read-out: Vdss

Row | Compound | Vd [L/kg]
44 | CNC(=O)[C@H](C1CCOCC1)N(CC(c1ccccc1)c1ccccn1)C(=O)c1cc(C)c(=O)n(C)c1 (stereo in doubt) | 0.6

Assay: not given
Conditions: buffer, pH 7.4

Row | Compound | logD
45 | CNC(=O)[C@H](C1CCOCC1)N(CC(c1ccccc1)c1ccccn1)C(=O)c1cc(C)c(=O)n(C)c1 (stereo in doubt) | 2.9

Assay: Tmax in Wistar Han rat at 3 mg/kg, po measured up to 24 hrs by LC-MS/MS analysis
Type: ADME, organism-based
Conditions: in vivo

Row | Compound | Tmax [min]
46 | CNC(=O)[C@H](C1CCOCC1)N(CC(c1ccccc1)c1ccccn1)C(=O)c1cc(C)c(=O)n(C)c1 (stereo in doubt) | 15

Assay: Oral bioavailability in Wistar Han rat at 3 mg/kg measured up to 24 hrs by LC-MS/MS analysis
Type: ADME, organism-based
Conditions: in vivo

Row | Compound | bioavailability [%]
47 | CNC(=O)[C@H](C1CCOCC1)N(CC(c1ccccc1)c1ccccn1)C(=O)c1cc(C)c(=O)n(C)c1 (stereo in doubt) | 16

Assay: physchem
Conditions: not given

Row | Compound | solubility [µg/mL]
48 | CNC(=O)C(C(C)C)N(CC(c1ccccc1)c1ccccc1)C(=O)c1cc(C)c(=O)n(C)c1 (stereo not given) | 105 (≈ 228 µM)
49 | Cc1cc(C(=O)N(CC(c2ccccc2)c2ccccc2)C(C)C2CCCO2)cn(C)c1=O (stereo not given) | 108 (≈ 243 µM)
50 | CNC(=O)CN(CC(c1ccccc1)c1ccccc1)C(=O)c1cc(C)c(=O)n(C)c1 | 163 (≈ 390 µM)
51 | CNC(=O)C(C)N(CC(c1ccccc1)c1ccccc1)C(=O)c1cc(OC)c(=O)n(C)c1 (stereo not given) | 111 (≈ 248 µM)
52 | CNC(=O)C(C)(C)N(CC(c1ccccc1)c1ccccc1)C(=O)c1cc(C)c(=O)n(C)c1 | > 242
53 | Cc1cc(C(=O)N(CC(N)=O)CC(c2ccccc2)c2ccccc2)cn(C)c1=O | > 175
54 | Cc1cc(C(=O)N(CCN2CCOCC2)CC(c2ccccc2)c2ccccc2)cn(C)c1=O | > 239
55 | CNC(=O)C(N(CC(c1ccccc1)c1ccccc1)C(=O)c1cc(C)c(=O)n(C)c1)C(C)(C)C (stereo not given) | 93 (≈ 196 µM)
